From patent publication EP1175907A1, “REMEDIES” (Takara Shuzo Co, Ltd., priority 1999, dated 2000)
Where “and” joins values, the source holds several entries; their conditions need not be identical. Equal entries are not always repeated. *1 amine or outer side, *2 acyl side, *3 side chain or, on linkers, in order; H or OH if unused. Where a SMILES comes first, the peptide text is derived from it. Bridges are numbered along the chain shown (N, C = ends). Roman numbers before positions name the chains, in order. [ ]: non-standard residue; d: D form. Actinocin(9to1) = Cc1c2oc3c(C)ccc(C(=O)[*:1])c3nc-2c(C(=O)[*:2])c(N)c1=O; NMeV = CN[C@H](C(=O)O)C(C)C; Sar = CNCC(=O)O

How the values were obtained:
[1] = test system: NHDF cells; assay: HGF in medium of NHDF cells with or without minoxidil; format: cell-based, human
Procedure: The cells were cultured for 24 hours. […] Also, the same steps were carried out for the group added with only the sample without adding minoxidil. The medium was collected, and the amount of HGF in the medium was determined by using Quantikine Human Hepatocyte Growth Factor (HGF) ELISA Kit. […] As a negative control, distilled water was added in the same volume as that of the sample. Each experiment was carried out three times, and an average value was taken.

[2] = test system: MRC-5 cells; assay: HGF production in MRC-5 cells with actinomycin D (RNA synthesis inhibitor); format: cell-based, Human; details: for Amount of HGF Produced (in Medium): control = 100%
Procedure: (3) Five-hundred microliters of MRC-5 cells (CCL171: manufactured by DAINIPPON PHARMACEUTICAL CO., LTD., code. 02-021) suspended in a DME medium containing 10% fetal bovine serum so as to have a concentration of 1 × 10^5 cells/ml were added into each well of a 48-well cell culture plate. The cells were cultured at 37°C for 24 hours in the presence of 5% CO2, and then the medium was exchanged for a DME medium containing 1% fetal bovine serum. Thereafter, actinomycin D (RNA synthesis inhibitor: manufactured by Sigma) was added thereto so as to have a final concentration of 0, 0.1, or 1 µg/ml, and a sample to be analyzed was further added thereto. The cells were then cultured for 24 hours. This medium was collected, and the amount of HGF in the medium was determined by using Quantikine Human Hepatocyte Growth Factor (HGF) ELISA Kit (manufactured by Funakoshi, Code. RS-0641-00). As to the amount of HGF produced, negative control was regarded as 100%. As to the inhibitory ratio, the inhibitory ratio (%) of the actinomycin D-added fraction was calculated on the basis of the amount of HGF produced when the fucoidan was added alone at each concentration. The fucoidan derived from Kjellmaniella crassifolia described in item (1) of Reference Example 1 was added so as to have a final concentration of 1, 10 or 100 µg/ml. As the negative control, distilled water was added in the same volume as that of the sample. Each experiment was carried out twice, and an average value was taken. […] It was clarified from these findings that RNA synthesis was probably involved in the induction of HGF production by the fucoidan, not simply freeing of HGF from the cells.
(4) Five-hundred microliters of MRC-5 cells (CCL171: manufactured by DAINIPPON PHARMACEUTICAL CO., LTD., code. 02-021) suspended in a DME medium containing 10% fetal bovine serum so as to have a concentration of 1 × 10^5 cells/ml were added into each well of a 48-well cell culture plate. The cells were cultured at 37°C for 24 hours in the presence of 5% CO2, and then the medium was exchanged for a DME medium containing 1% fetal bovine serum. Thereafter, actinomycin D (RNA synthesis inhibitor: manufactured by Sigma) was added thereto so as to have a final concentration of 0, 0.1, or 1 µg/ml, and a sample was further added thereto. The cells were then cultured for 24 hours. This medium was collected, and the amount of HGF in the medium was determined by using Quantikine Human Hepatocyte Growth Factor (HGF) ELISA Kit (manufactured by Funakoshi, Code. RS-0641-00). In addition, the cells were washed with PBS, and thereafter dissolved in 500 µl of a cytolytic buffer (50 mM HEPES, pH 7.4; 10 mM EDTA, 0.1% Triton x 100; 1 mM PMSF; 1 µg/ml pepstatin A and 1 µg/ml, leupeptin). Further, in order to completely dissolve the cells, the mixture was subjected to sonication treatment, and then centrifuged, to give a supernatant (cell extract). The amount of HGF in the cell was determined in the same manner as that of the concentration of HGF in the medium. As to the amount of HGF produced, negative control was regarded as 100%. As to the inhibitory ratio, the inhibitory ratio (%) of the actinomycin D-added fraction was calculated on the basis of the amount of HGF produced when 7-12SFd-F was added alone at each concentration. 7-12SFd-F was added so as to have a final concentration of 1,10 or 100 µg/ml. As the negative control, distilled water was added in the same volume as that of the sample. Each experiment was carried out three times, and an average value was taken. […] It was clarified from these findings that RNA synthesis was probably involved in the induction of HGF production by 7-12SFd-F, not simply freeing of HGF from the cells.

[3] = test system: MRC-5 cells; assay: synergistic effect on HGF production with PGE1 or IL-1α in MRC-5 cells; format: cell-based, Human; details: control = 100%
Excerpt: (1) Synergistic effect for the induction action for HGF production of the fucoidan derived from Kjellmaniella crassifolia described in item (1) of Reference Example 1 with prostaglandin or IL-1 was studied in the same manner as that in item (1) of Example 1.
Specifically, the synergistic effect for the induction activity for HGF production was studied by simultaneously adding the fucoidan and PGE1 (manufactured by Wako Pure Chemicals Industries, Ltd.) or IL-1α (manufactured by Genzyme).
The fucoidan sample was added so as to have a final concentration of 1, 10 or 100 µg/ml. PGE1 was added so as to have a concentration of 0.1 or 1 µM, the IL-1α was added so as to have a concentration of 1 ng/ml. As a control, distilled water was added in same volume as that of the sample.
The synergistic effect was studied in comparison to the amount produced of a case where the fucoidan sample or PGE1 or IL-1α was added alone.
In Tables 35 and 36, the amount of HGF produced of the control was regarded as 100%. Each experiment was carried out twice, and an average value was taken. […]
(2) Synergistic effect for the induction action for HGF production of 7-12SFd-F of Reference Example 2 with prostaglandin or IL-1 was studied in the same manner as that in item (1) of Example 2. […]

[4] = test system: MRC-5 cells; assay: mRNA of HGF in MRC-5 cells (RT-PCR); format: cell-based; details: 7-12SFd-F 100 µg/ml, LM Heparin 1 µg/ml or PGE1 1 µM; Hours 0 to 24, compared to control
Procedure: MRC-5 cells (CCL 171: manufactured by DAINIPPON PHARMACEUTICAL CO., LTD., code. 02-021) cultured in a DMEM medium containing 10% fetal bovine serum were suspended in the DMEM medium containing 10% fetal bovine serum so as to have a concentration of 2.5 × 10^5 cells/ml, and added into each well of a 6-well cell culture plate. The cells were cultured at 37°C for 24 hours in the presence of 5% CO2. Thereafter, the medium was exchanged for a DMEM medium containing 1% fetal bovine serum, and the cells were further cultured for 22 hours. Thereafter, the medium was exchanged for each medium added with 7-12SFd-F prepared in item (3) of Reference Example 2 so as to have a final concentration of 100 µg/ml, LM Heparin (manufactured by Celsus Laboratories) so as to have a final concentration of 1 µg/ml, or prostaglandin E1 (PGE1) (manufactured by Wako Pure Chemicals Industries, Ltd.) dissolved in dimethyl sulfoxide (DMSO) so as to have a final concentration of 1 µM. As a medium for control group, the medium added with DMSO was used. Here, the solvent of each additive mentioned above was added so as to have a concentration of 1% in all cases. […] In addition, in order to carry out a semi-quantitative experiment, â-actin, a housekeeping gene, was also detected. […] In all of the samples, mRNA of HGF was detected. […]

## Nc1cc(N2CCCCC2)nc(N)[n+]1[O-] [Minoxidil, minoxidil]
[1]; Minoxidil 10 µg/ml alone
  Concentration of HGF in Medium: 126.04 pg/mL
[1]; Minoxidil 100 µg/ml alone
  Concentration of HGF in Medium: 148.83 pg/mL and 137.20 pg/mL

## Cc1c2oc3c(C)ccc(C(=O)N[C@@H]4C(=O)N[C@H](C(C)C)C(=O)N5CCC[C@H]5C(=O)N(C)CC(=O)N(C)[C@@H](C(C)C)C(=O)O[C@@H]4C)c3nc-2c(C(=O)N[C@@H]2C(=O)N[C@H](C(C)C)C(=O)N3CCC[C@H]3C(=O)N(C)CC(=O)N(C)[C@@H](C(C)C)C(=O)O[C@@H]2C)c(N)c1=O [Actinomycin D, actinomycin D] (I: T[dV]P[Sar][NMeV] / II: T[dV]P[Sar][NMeV]; ester I:1-I:C, II:1-II:C; linker I:N-II:N via Actinocin(9to1))
[2]; Actinomycin D 0.1 µg/ml alone
  Amount of HGF Produced (Total in Cells and in Medium): 61%
  Inhibitory Ratio Where Actinomycin D Non-Added Group Was Regarded as 100% (Total in Cells and in Medium): 39%
  Inhibitory Ratio Where Actinomycin D Non-Added Group Was Regarded as 100% (in Medium): 21% and 24%
  Amount of HGF Produced (in Medium): 79% and 76%
[2]; Actinomycin D 1 µg/ml alone
  Amount of HGF Produced (Total in Cells and in Medium): 59%
  Inhibitory Ratio Where Actinomycin D Non-Added Group Was Regarded as 100% (Total in Cells and in Medium): 41%
  Inhibitory Ratio Where Actinomycin D Non-Added Group Was Regarded as 100% (in Medium): 17% and 20%
  Amount of HGF Produced (in Medium): 83% and 80%

## CCCCC[C@H](O)/C=C/[C@H]1[C@H](O)CC(=O)[C@@H]1CCCCCCC(=O)O [PGE1, prostaglandin E1]
[3]; PGE1 0.1 µM alone
  Amount of HGF Produced: 119% and 123%
[3]; PGE1 1 µM alone
  Amount of HGF Produced: 157% and 170%
[4]
  induction of mRNA of HGF: found
